Paper PMC10447463, “Data-mining unveils structure–property–activity correlation of viral infectivity enhancing self-assembling peptides” (Nature Communications, 2023)

Legend:
[1] = Aggregate analysis by widefield fluorescence microscopy; type: physicochemical
Description: 4 µL of 1 mg/mL peptide fibrils solution is added to a 20 µL, 50 µM ThT–solution in PBS. The mixture is incubated for 15 min at RT to allow binding of ThT dye with β–sheet rich structures. For reference PBS (4 µL) was added instead of peptide fibril solution. The samples were placed in black UV Star® 384 microliter well–plates (Greiner bio–one). Fluorescence spectra were recorded on an Infinite® M1000 PRO microplate reader (Tecan) at λem = 488 nm upon excitation at λex = 440 nm with 10 nm bandwidths and multiple reads per well (3×3). Measurements were repeated in triplicates and averaged with standard deviation. A peptide fibril was considered as ThT-active if the fluorescence intensity was at least twice as strong compared to the control (PBS containing 10% DMSO). Zeta-Potential. For the determination of the surface charge of aggregated peptides zeta-potential measurements were conducted with a Zetasizer Nano ZS, Malvern Instruments. Unless stated otherwise the peptides were dissolved from DMSO (10 mg/mL) in PBS (pH 7.4) to concentration of 1 mg/mL and incubated for 1d at RT. Just before the measurement the 60 µL of the peptides were further diluted in 600 µL KCl (aq, 1 mM) in a 1 mL disposable folded capillary cells (DTS–1060, Zetasizer Nano series, Malvern). The zeta potential of the peptides was derived from the electrophoretic mobility based on the Smoluchowski formula. All measurements were averaged over two individually performed experiments and conducted in triplicates for each sample. Aggregate analysis. […] Furthermore, fluorescence microscopy was conducted by staining 1 µL preformed fibrils (1 mg/mL) with 9 µL ThT (50 µM). Brightfield microscopy was performed simultaneously to evaluate aggregation also for non ThT-active fibrils. The measurements were performed on a Leica DMi8 microscope with 10x air objective and equipped with a Leica MC170 HD camera with a filter setting λem = 527/30 nm upon excitation at λex = 480/40 nm) and processed with the Leica LASX software. To quantify size and number of microscopic aggregation of particles > 10 µm^2 at least 3 independently measured images were analyzed via the 3D object counter analysis tool of ImageJ, v 1.53f51. Sum–frequency generation. The SFG experiments were carried out with a femtosecond Ti: Sapphire amplified laser system (Spitfire Ace, Spectra–Physics, 800 nm, 40 fs, 1 kHz) with 5 W output power. We used 2 W to pump an optical parametric amplifier (TOPAS, light conversion) with a non–collinear difference frequency generation stage to generate broadband IR pulses. Another 1 W of the laser output passed through an etalon to generate narrowband visible pulses (10 cm^-1). The incident angles of the visible and IR beams were 36° and 41° with respect to the surface normal, respectively. The visible (13 µJ) and IR (5 µJ) pulses were overlapped spatially and temporally at the sample position. Subsequently, the generated SFG pulse was guided into a spectrograph (Acton SP 300i, Princeton Instruments), and detected with an EMCCD (Newton, Andor Technology). To avoid IR absorption of water vapor, we purged N2 for the measurement. All spectra were collected in the ssp (denoting s-, s- and p-polarized SFG, visible and IR, respectively) polarization combination. The spectra were normalized to the non–resonant signal taken from z–cut quartz after subtracting a background spectrum.
Table S8 Summary of aggregate analysis from widefield microscopy measurements (Figure S32). The Number of aggregated peptides, the median size area, average size area
and the cumulative total size area of all particles (> 10 µm2) in an area of 1330 µm × 1330 µm was determined via automated 3D object counting (ImageJ) in triplicate
measurements (Std. Dev.).
Aggregate Std. Dev. Std. Dev. Std. Dev. Std. Dev.
Sequence Abs. Inf. / Std. Dev. / Count Rate / Std. Dev. Number Aggregate Median Area Median Area Average Area Average Area Total Area/ Total Area/ […]

[2] = Turbidity, derived count rate of scattered light; type: physicochemical; details: for Count Rate: derived count rate of scattered light (turbidity); for Log10 Count Rate: turbidity, derived count rate of scattered light, data of Figure 2D
[3] = Fig S8 panels A, C, 3 fields of 1330 µm x 1330 µm
[4] = Fig S8 panels B, D, average aggregate area, 3 fields of 1330 µm x 1330 µm
[5] = Fig S8 panels B, D, median aggregate area, 3 fields of 1330 µm x 1330 µm
[6] = Fig S8 panels B, D, 3 fields of 1330 µm x 1330 µm
[7] = Fig S8 panels B, D, widefield fluorescence microscopy, 3 fields of 1330 µm x 1330 µm

Substance	Avg Area in 3 *(1330 µm *1330 µm) ([1]; Fig S8 panels A, C)	Log 10 Number of aggregates in 3 * (1330 µm *1330 µm) ([1]; Fig S8 panels A, C)	Median Area in 3 * (1330 µm *1330 µm) ([1]; Fig S8 panels A, C)	log Avg Area in 3 * ( (1330 µm *1330 µm)) ([1]; Fig S8 panels A, C)	log Median Area in 3 * ( (1330 µm *1330 µm)) ([1]; Fig S8 panels A, C)	log Total Area of all particles in 3 * (1330 µm *1330 µm) ([1]; Fig S8 panels A, C)	Number of aggregates in 3 * (1330 µm *1330 µm) [1, 3]	Avg Area in 3 *(1330 µm *1330 µm) [1, 4]	Median Area in 3 * (1330 µm *1330 µm) [1, 5]	Total Area of all particles in 3 * (1330 µm *1330 µm) [1, 6]	Number of aggregates in 3 * (1330 µm *1330 µm) [1, 7]	Count Rate [2]	Log10 Count Rate [2]
HHHHKIKIKIKIYYYY [TM6]	71.63	2.1683	19.72	1.855	1.295	4.023	147.3	71.63	19.72	10553.37833	147.3	–	–
CKWKWQW [KB4]	95.93	1.94	29.43	1.982	1.469	3.921	87	95.93	29.43	8346	87	–	–
CQFQFQF [QBL4]	73.07	1.6596	15.07	1.864	1.178	3.523	45.67	73.07	15.07	3337	45.67	–	–
CKFKQFF [CK15]	2578	0.7533	2243	3.411	3.351	4.165	5.667	2578	2243	14606.95267	5.667	–	–
CKAKAQANMWQ [BL8]	857.7	0.8016	479.9	2.933	2.681	3.735	6.333	857.7	479.9	5432	6.333	–	–
QCKAKAQA [CK24]	–	–	–	–	–	–	–	0	0	0	0	–	–
KIKIQIC [TM112 / CN11]	23.45	1.912	12.96	1.37	1.1125	3.282	81.67	23.45	12.96	1915.068	81.67	–	–
CKIKQIINMWQ [MG5a / CK17]	183.3	2.289	91.75	2.263	1.963	4.553	194.7	183.3	91.75	35686.92633	194.7	–	–
CHLHLQL [CN9]	330.1	1.5563	35.7	2.5187	1.553	4.075	36	330.1	35.7	11885.21533	36	–	–
CKFKFQFNM [BL3]	19.89	2.2313	11.55	1.299	1.063	3.53	170.3	19.89	11.55	3388	170.3	–	–
CKIKIQI [MG3b]	58.72	2.501	16.48	1.7688	1.2169	4.27	317	58.72	16.48	18614.711	317	–	–
CKFKQFFNM [CK14]	31.08	2.848	15.21	1.4925	1.182	4.34	704	31.08	15.21	21881.13867	704	–	–
KFKFQFNMWQ [JG4]	599.2	1.806	25.773	2.778	1.411	4.584	64	599.2	25.773	38349.21133	64	–	–
KFKFQFNMW	–	–	–	–	–	–	–	–	–	–	–	610.2	2.785
KLKQLL	–	–	–	–	–	–	–	–	–	–	–	319.9	2.505
RGDKIKIQI	–	–	–	–	–	–	–	–	–	–	–	298.1	2.474
CKIKIQINMWQ	–	–	–	–	–	–	–	–	–	–	–	1881	3.274
